Assay results as given in patent publication US11608328B2, “Chemical probes to identify anti-mycobacterial MmpL3 inhibitors” (Creighton University, priority 2019, dated 2023).

target: MmpL3tb(G253E) (Mycobacterium tuberculosis, UniProt P9WJV5, G253E); format: binding

**Q.** For `CC(C)=CCC/C(C)=C/CNCCNC1C2CC3CC(C2)CC1C3` (stereo not drawn) [SQ109], which “BLI binding to MmpL3tb(G253E) versus WT” value is on record?
**A.** no binding to MmpL3tb(G253E) was detected

**Q.** How did the “BLI binding to MmpL3tb(G253E) versus WT” value turn out when `C[C@@H]1[C@H]2C[C@@H](C[C@H]1NC(=O)c1cc3ccccc3[nH]1)C2(C)C` [North 4] was run?
**A.** unaltered by the G253E mutation

**Q.** `Cc1cc(C)c2cc(C(=O)NC3CCCCCCC3)[nH]c2c1` [North 21] was tested. Which “BLI binding to MmpL3tb(G253E) versus WT” value did it give?
**A.** no binding to MmpL3tb(G253E) was detected
